This passage reports IC50, GI50 and Kd results from patent US8609688B2, “Substituted imidazopyridinyl-aminopyridine compounds” (ArQule, Inc., priority 2011, dated 2013).

In assay [1] the test system is Phospho-Akt (S473). The assay can be described thus: Cell ELISA Assay, Phospho-Akt detection. The assay is classed as cell-based. As to conditions: cells treated for 1 hour, cell line not stated. How it is done:
Phospho-Akt detection analysis. Phospho-Akt (S473) was detected using cell ELISA. Briefly, cells were plated in a 96-well plate at 7,000-10,000 cells per well, cultured for 2-3 days in complete growth medium, and then treated with various drugs or combinations of drugs for 1 hour. The cells were fixed with ice-cold methanol, and washed with TBS supplemented with 1% H2O2. Phospho-Akt (S473) was probed with corresponding rabbit antibody as a primary antibody, and horseradish peroxidase conjugated goat anti-rabbit IgG. After treatment with SuperSignal® ELISA for 15 minutes, the detection was performed using a luminometer. Data were normalized to untreated controls and analyzed with Microsoft Excel.
(An ELISA detects its analyte on a solid surface through an enzyme-linked reagent.)

For assay [2], the system named is cells. Briefly: Cell proliferation / viability GI50 (MTS assay or ATP quantitation assay). It is filed as cell-based. As to conditions: 72 hours treatment; cell line and assay (MTS or ATP quantitation) not stated. How it is done:
Cell proliferation analysis. Cell survival was determined by the MTS assay. Briefly, cells were plated in a 96-well plate at 2,000-10,000 cells per well, cultured for 24 hours in complete growth medium, and then treated with various drugs and drug combinations for 72 hours. MTS was added and incubated for 4 hour, followed by assessment of cell viability using the microplate reader at 570 nm. Data were normalized to untreated controls and analyzed with Microsoft Excel.
Cell viability analysis. Cell viability was determined by the ATP quantitation assay. Briefly, cells were plated in a 96-well plate at 2,000-10,000 cells per well, cultured for 24 hours in complete growth medium, and then treated with various drugs or combination of drugs for 72 hours. CellTiter-Glo® reagent was added and incubated at room temperature for 10 minutes, followed by assessment of cell viability using a luminometer. Data were normalized to untreated controls and analyzed with Microsoft Excel.
(In general: Tetrazolium assays rely on reduction of a dye to a coloured formazan, in cell work by metabolically active cells.)

Assay [3] has as its target T1, Full-length inactive AKT1 (Homo sapiens (Human), UniProt P31749). Briefly: Inactive Akt Alpha Screen Assay. Particulars: 8 nM inactive Akt1 activated by PDK1 and MAPKAPK2, lipid vesicles, 50 μM ATP, biotinylated crosstide; read-out: Akt1 biochemical assay IC50 AlphaScreen crosstide. How it is done:
AKT1 activity was assayed using the GSK3-derived biotinylated peptide substrate, crosstide (biotin-[…]), and AlphaScreen™ (Amplified Luminescent Proximity Homogeneous Assay) technology. AKT1 activation was achieved by the addition of the activating kinases PDK1 and MAPKAPK2, lipid vesicles, and ATP. The extent of peptide phosphorylation was determined using a phospho-AKT substrate antibody and acceptor beads conjugated to Protein A and donor beads conjugated to streptavidin that bind to the biotin on the peptide. Excitation of the donor beads converted ambient oxygen to excited singlet oxygen which, when in close proximity to acceptor beads, reacted with acceptor beads resulting in signal amplification.
After a 20 minute pre-incubation at room temperature, the kinase reaction was initiated by the addition of 5 μL of an activation mixture diluted in assay buffer containing biotinylated crosstide, PDK1, MAPKAPK2, DOPS/DOPC, PtdIns(3,4,5)P3, and ATP for final concentrations of 60 nM biotinylated crosstide, 0.1 nM PDK1, 0.7 nM MK2, 5.5 μM DOPS, 5.5 μM DOPC, 0.5 μM PtdIns(3,4,5)P3, and 50 μM ATP. The plates were incubated for 30 minutes at room temperature, and then stopped in the dark by the addition of 10 μL stop/detection mixture prepared in assay buffer containing EDTA, AlphaScreen™ Streptavidin Donor and Protein A Acceptor beads, and phospho-AKT substrate antibody for final concentrations of 10 mM EDTA, 500 ng/well of both AlphaScreen™ Streptavidin Donor beads and Protein A Acceptor beads, and phospho-AKT substrate antibody at a final dilution of 1:350. Assay plates were incubated for 90 minutes at room temperature in the dark, and the plates were read on a Perkin Elmer Envision Multilabel plate reader (excitation wavelength: 640 nm, emission wavelength: 570 nm). […]
On the technique in general: In Alpha technology, singlet oxygen from a donor bead excites a nearby acceptor bead.

Assay [4] has as its target T1, Full-length inactive AKT1. Briefly: Thermal Shift Assay (protein-ligand binding). As to conditions: Kd at 25° C. calculated using constant ligand binding enthalpy −15 kcal/mol; 15 μM compound, ANS dye. How it is done:
Binding analysis. Protein-ligand binding was identified with the thermal shift assay which is based on the ligand-induced stabilization of the protein tertiary structure. The thermal stability of the ligand-Akt1 complex was assessed by subjecting the complex to a set temperature gradient and by comparison of the meltion temperature of the Akt1-ligand complex with the melting temperature of the protein alone. Protein unfolding was monitored by the fluorescence readout of an environmentally sensitive fluorescent dye, 1-anilinonaphthalene-8-sulfonic acid (ANS). […] The PCR plate was placed into a RT-PCR instrument and a temperature gradient was performed, increasing from 27 to 80° C., at 1° C./30 sec heat rate with a dwell time of 20 sec. The change in ANS fluorescence was measured using the filter set of 475 nm/525 nm excitation/emission.

T1 sequence (P31749 whole entry): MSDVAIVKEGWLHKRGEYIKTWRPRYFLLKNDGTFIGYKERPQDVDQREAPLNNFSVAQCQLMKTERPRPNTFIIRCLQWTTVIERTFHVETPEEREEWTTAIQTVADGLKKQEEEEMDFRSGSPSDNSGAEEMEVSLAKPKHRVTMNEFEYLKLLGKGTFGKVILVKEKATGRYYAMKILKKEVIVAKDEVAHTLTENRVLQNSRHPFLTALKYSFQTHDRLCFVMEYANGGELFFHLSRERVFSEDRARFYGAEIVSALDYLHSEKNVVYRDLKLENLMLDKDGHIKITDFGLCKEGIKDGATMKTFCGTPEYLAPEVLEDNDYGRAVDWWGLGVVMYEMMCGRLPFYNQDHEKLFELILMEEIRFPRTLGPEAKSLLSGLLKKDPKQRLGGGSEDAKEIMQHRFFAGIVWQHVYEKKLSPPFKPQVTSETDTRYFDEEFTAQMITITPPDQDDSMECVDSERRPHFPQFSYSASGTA

`Nc1ncccc1-c1nc2ccc(N3CCOCC3)nc2n1-c1ccc(C2(N)CCC2)cc1` [Cmpd 1, 3-(3-(4-(1-aminocyclobutyl)phenyl)-5-morpholino-3H-imidazo[4,5-b]pyridin-2-yl)pyridin-2-amine]: the IC50 (in general, the midpoint of a concentration-inhibition curve) in assay [1] stood at 0.235 µM.
Take `Nc1ncccc1-c1nc2ccc(-c3cccc(NC(=O)C4CC4)c3)nc2n1-c1ccc(C2(N)CCC2)cc1` [Cmpd 3, N-(3-(3-(4-(1-aminocyclobutyl)phenyl)-2-(2-aminopyridin-3-yl)-3H-imidazo[4,5-b]pyridin-5-yl)phenyl)cyclopropane-carboxamide]: in assay [2], the GI50 – broadly, the concentration that inhibits growth by half – stood at 444 µM. For the same compound, the values for the IC50 in assay [1] and in assay [3] were 0.029 µM and 0.00309 µM, respectively. Moreover, in assay [4], the Kd (in general, the equilibrium constant for the complex coming apart) is 0.007 µM.
With `CC(C)(C)C(=O)Nc1cccc(-c2ccc3nc(-c4cccnc4N)n(-c4ccc(C5(N)CCC5)cc4)c3n2)c1` [Cmpd 4, N-(3-(3-(4-(1-aminocyclobutyl)phenyl)-2-(2-aminopyridin-3-yl)-3H-imidazo[4,5-b]pyridin-5-yl)phenyl)pivalamide], in assay [2], the GI50 is 265 µM. The IC50 in assay [1] came out at 0.017 µM; in assay [3] it was 0.0017 µM. Also, the Kd in assay [4] was 0.0004 µM.
In the case of `CC(=O)OC(C)(C)C(=O)Nc1cccc(-c2ccc3nc(-c4cccnc4N)n(-c4ccc(C5(N)CCC5)cc4)c3n2)c1` [Cmpd 5, 1-((3-(3-(4-(1-aminocyclobutyl)phenyl)-2-(2-aminopyridin-3-yl)-3H-imidazo[4,5-b]pyridin-5-yl)phenyl)amino)-2-methyl-1-oxopropan-2-yl acetate], in assay [3], the IC50 was 0.00446 µM. In assay [4], the Kd is 0.0007 µM.
In the same order, the values of `CC(C)(O)C(=O)Nc1cccc(-c2ccc3nc(-c4cccnc4N)n(-c4ccc(C5(N)CCC5)cc4)c3n2)c1` [Cmpd 6, N-(3-(3-(4-(1-aminocyclobutyl)phenyl)-2-(2-aminopyridin-3-yl)-3H-imidazo[4,5-b]pyridin-5-yl)phenyl)-2-hydroxy-2-methylpropanamide] are 0.00163 µM and 0.0014 µM.
As for `C[C@H](O)CNC(=O)c1cccc(-c2ccc3nc(-c4cccnc4N)n(-c4ccc(C5(N)CCC5)cc4)c3n2)c1` [Cmpd 7, (S)-3-(3-(4-(1-aminocyclobutyl)phenyl)-2-(2-aminopyridin-3-yl)-3H-imidazo[4,5-b]pyridin-5-yl)-N-(2-hydroxypropyl)benzamide], the GI50 in assay [2] was 836 µM. The IC50 in assay [1] was determined as 0.012 µM.
Consider `C[C@@H](O)CNC(=O)c1cccc(-c2ccc3nc(-c4cccnc4N)n(-c4ccc(C5(N)CCC5)cc4)c3n2)c1` [Cmpd 8, (R)-3-(3-(4-(1-aminocyclobutyl)phenyl)-2-(2-aminopyridin-3-yl)-3H-imidazo[4,5-b]pyridin-5-yl)-N-(2-hydroxypropyl)benzamide], for which the GI50 in assay [2] came to 1350 µM. Further, in assay [1], the IC50 was 0.008 µM.
Consider `CN(C)C(=O)C1CCN(c2cccc(-c3ccc4nc(-c5cccnc5N)n(-c5ccc(C6(N)CCC6)cc5)c4n3)c2)CC1` [Cmpd 9, 1-(3-(3-(4-(1-aminocyclobutyl)phenyl)-2-(2-aminopyridin-3-yl)-3H-imidazo[4,5-b]pyridin-5-yl)phenyl)-N,N-dimethylpiperidine-4-carboxamide], for which the 50% inhibitory concentration (IC50) in assay [1] was found to be 0.0021 µM; in assay [3], 0.00251 µM. For the same compound, the Kd in assay [4] was 0.0002 µM.
Turning to `CCN(CC)C(=O)C1CCN(c2cccc(-c3ccc4nc(-c5cccnc5N)n(-c5ccc(C6(N)CCC6)cc5)c4n3)c2)CC1` [Cmpd 10, 1-(3-(3-(4-(1-aminocyclobutyl)phenyl)-2-(2-aminopyridin-3-yl)-3H-imidazo[4,5-b]pyridin-5-yl)phenyl)-N,N-diethylpiperidine-4-carboxamide], the values for the IC50 in assay [1] and in assay [3] were 0.003 µM and 0.00415 µM, respectively. Also, the Kd in assay [4] is 0.0002 µM.
As for `Nc1ncccc1-c1nc2ccc(-c3cccc(N4CCC(C(=O)N5CCOCC5)CC4)c3)nc2n1-c1ccc(C2(N)CCC2)cc1` [Cmpd 11, (1-(3-(3-(4-(1-aminocyclobutyl)phenyl)-2-(2-aminopyridin-3-yl)-3H-imidazo[4,5-b]pyridin-5-yl)phenyl)piperidin-4-yl)(morpholino)methanone], the IC50 in assay [1] amounted to 0.0017 µM; in assay [3], 0.00336 µM. Besides, in assay [4], the Kd was 0.0002 µM.
As to `CC(C)C(=O)N1CCN(c2cccc(-c3ccc4nc(-c5cccnc5N)n(-c5ccc(C6(N)CCC6)cc5)c4n3)c2)CC1` [Cmpd 15, 1-(4-(3-(3-(4-(1-aminocyclobutyl)phenyl)-2-(2-aminopyridin-3-yl)-3H-imidazo[4,5-b]pyridin-5-yl)phenyl)piperazin-1-yl)-2-methylpropan-1-one], the IC50 in assay [1] was determined as 0.004 µM. Besides, the Kd in assay [4] is 0.0011 µM.
On to `CC(C)(C)C(=O)N1CCN(c2cccc(-c3ccc4nc(-c5cccnc5N)n(-c5ccc(C6(N)CCC6)cc5)c4n3)c2)CC1` [Cmpd 16, 1-(4-(3-(3-(4-(1-aminocyclobutyl)phenyl)-2-(2-aminopyridin-3-yl)-3H-imidazo[4,5-b]pyridin-5-yl)phenyl)piperazin-1-yl)-2,2-dimethylpropan-1-one], for which, in assay [3], the IC50 stood at 0.00342 µM. In addition, the Kd in assay [4] is 0.0017 µM.
Turning to `C[C@@H]1CN(c2cccc(-c3ccc4nc(-c5cccnc5N)n(-c5ccc(C6(N)CCC6)cc5)c4n3)c2)C[C@H](C)O1` [Cmpd 17, 3-(3-(4-(1-aminocyclobutyl)phenyl)-5-(3-((2S,6R)-2,6-dimethylmorpholino)phenyl)-3H-imidazo[4,5-b]pyridin-2-yl)pyridin-2-amine], the IC50 in assay [3] worked out at 0.00436 µM. In addition, the Kd in assay [4] is 0.0031 µM.
For the compound `Nc1ncccc1-c1nc2ccc(-c3cccc(N4CCS(=O)(=O)CC4)c3)nc2n1-c1ccc(C2(N)CCC2)cc1` [Cmpd 18, 4-(3-(3-(4-(1-aminocyclobutyl)phenyl)-2-(2-aminopyridin-3-yl)-3H-imidazo[4,5-b]pyridin-5-yl)phenyl)thiomorpholine 1,1-dioxide], the half-maximal inhibitory concentration (IC50) in assay [3] turned out to be 0.00179 µM. Besides, the Kd in assay [4] was 0.0008 µM.
As to `Nc1ncccc1-c1nc2ccc(Nc3ccccc3)nc2n1-c1ccc(C2(N)CCC2)cc1` [Cmpd 19, 3-(4-(1-aminocyclobutyl)phenyl)-2-(2-aminopyridin-3-yl)-N-phenyl-3H-imidazo[4,5-b]pyridin-5-amine], the GI50 in assay [2] is 1420 µM. In addition, the IC50 in assay [1] stood at 0.06 µM; in assay [3], 0.00377 µM.
In the case of `Nc1ncccc1-c1nc2ccc(Nc3ccc(N4CCOCC4)cc3)nc2n1-c1ccc(C2(N)CCC2)cc1` [Cmpd 20, 3-(4-(1-aminocyclobutyl)phenyl)-2-(2-aminopyridin-3-yl)-N-(4-morpholinophenyl)-3H-imidazo[4,5-b]pyridin-5-amine], the IC50 in assay [1] was found to be 0.414 µM; in assay [3], 0.00872 µM. Besides, the Kd in assay [4] is 0.0573 µM.
Turning to `Nc1ncccc1-c1nc2ccc(Sc3ccccc3)nc2n1-c1ccc(C2(N)CCC2)cc1` [Cmpd 21, 3-(3-(4-(1-aminocyclobutyl)phenyl)-5-(phenylthio)-3H-imidazo[4,5-b]pyridin-2-yl)pyridin-2-amine], the IC50 in assay [1] was determined as 0.605 µM. Besides, in assay [4], the Kd was 0.11 µM.
Turning to `Nc1ncccc1-c1nc2ccc(Oc3ccccc3)nc2n1-c1ccc(C2(N)CCC2)cc1` [Cmpd 22, 3-(3-(4-(1-aminocyclobutyl)phenyl)-5-phenoxy-3H-imidazo[4,5-b]pyridin-2-yl)pyridin-2-amine], the Kd in assay [4] is 0.0831 µM.
